The record followed here is patent US20130184272A1, “DIABETES THERAPEUTIC AGENT” (TAKEDA PHARMACEUTICAL COMPANY LIMITED, priority 2010, published 2013).

Experiment [1] deals with Mouse-derived myoblast line C2C12 cell. As to the kind of experiment: Cell differentiation promoting activity in myoblast (creatine kinase activity). Type of experiment: cell-based. The following applies: Mus musculus, C2C12, 48 h, 2 days, without compound = 100%, read-out: creatine kinase activating action (%); for activity at 0.01 µM: compound at 0.01 μM (**); for activity at 1 µM: compound at 1 μM. The method, then: • (1) Mouse-derived myoblast line C2C12 cell (Dainippon Pharmaceutical Co., Ltd.) was subcultured in a high glucose Eagle's modified Dulbecco's medium (GIBCO) added with 10% calf fetal bovine serum (GIBCO), 100 unit/mL penicillin and 100 μg/mL streptomycin (hereinafter to be referred to as a growth medium), plated at 5000 cells/cm^2 and cultured at 37° C., under 5% CO2. • (2) When the cells reached subconfluence of not less than 90%, the medium was exchanged with high glucose Eagle's modified Dulbecco's medium (GIBCO) added with (i) 2% horse serum (GIBCO) and (ii) penicillin, streptomycin and a test compound (hereinafter to be referred to as a differentiation medium) and the cells were cultured for 2 days. To the control group was added DMSO solution instead of the test compound. • (3) The cells were washed with PBS, 0.5% NP-40 solution was added, and the cells were lysed by freeze-thawing. The cell extract was centrifuged and the creatine kinase activity in the supernatant was measured as an index of muscle differentiation. The creatine kinase activity was measured using CPKII Test Wako (Wako Pure Chemical Industries, Ltd.) according to the manual of the kit.
The numerical values in Table 1 show creatine kinase activity of the compound addition group when the creatine kinase activity without addition of the compound is 100%, and * means measurement with addition of the compound at 10 μM, ** at 0.01 μM, and others at 1 μM.

Experiment [2] concerns Female KKA^y mice. Put plainly: Anti-diabetes action and dyslipidemia improving effect in KKA^y mouse. The following applies: 2 weeks, control group = 100. Type of experiment: in vivo. How it is done: Female KKA^y mice (12-week-old, CLEA Japan, Inc.) were bred while allowing free ingestion of both feed and water. The mice were bred for acclimation with powder CE-2 (CLEA Japan, Inc.) from 2 weeks before administration of the compound. The body weight and plasma markers were measured and, at 14 weeks of age, they were divided such that the measured values were uniform with those of the control group. The compound of Reference Example 1, 2, 7, 8, 9 or 22 was administered for 2 weeks in a mixed feed (0.01-0.0001%). On the last day, plasma levels of glucose, insulin, total cholesterol and neutral lipid were measured.

The subject of experiment [3] is C2C12 cell. As to the kind of experiment: Sugar metabolism promoting activity in muscle cell (lactic acid production). Type of experiment: cell-based, Mouse. The following applies: Mus musculus, 48 h; compound 1 μM, 2 days, C2C12 myotubes; without drug = 100%; read-out: lactic acid production promoting action (%). How it is done:
• (1) In the same manner as in Example 1, C2C12 cell was cultured in a growth medium. After reaching subconfluence of not less than 90%, the medium was exchanged with a differentiation medium and the cells were cultured for about 7 days while exchanging the medium every 2 or 3 days until the cells differentiated to form a myotube. • (2) After confirmation of myotube formation under a microscope, the test compound (1 μM) was added to a differentiation medium and cultured for 2 days. The cells were washed with Krebs-Ringer HEPES phosphate buffer (10 mM HEPES, pH 7.4, 131 mM NaCl, 4.7 mM KCl, 2.5 mM CaCl2—2H2O, 1.2 mM MgSO4—7H2O, 1.2 mM KH2PO4), the medium was exchanged with Krebs-Ringer HEPES phosphate buffer added with 5 mM glucose, 0.2% fatty acid-free bovine serum albumin, and cultured at 37° C. for 4 hr. • (3) The lactic acid concentration of the culture supernatant was measured using Detarminer LA kit (Kyowa Medex Co., Ltd.).
The numerical values in Table 2 show the concentration of the compound addition group with the concentration of lactic acid without addition of a drug as 100%.

Take `CC(=O)Nc1ccc(Oc2sc(C(N)=O)c3c2-c2c(cnn2C)CC3)cc1` [Ref. Ex. 22, 8-[4-(acetylamino)phenoxy]-1-methyl-4,5-dihydro-1H-thieno[3,4-g]indazole-6-carboxamide]: the activity at 0.01 µM in experiment [1] is 195%. Moreover, in experiment [2] (mixed feed dose 0.0003 %), the “plasma glucose (%)” value is reported as 60.9 ± 27.1%, the “plasma neutral lipid (%)” value was 42.3 ± 7.2% and the “plasma total cholesterol (%)” value amounted to 71.0 ± 7.3%. Also, the activity at 1 µM in experiment [3] is 311%.

With `Cn1ncc2c1-c1c(Oc3ccc(OC(F)(F)F)cc3)sc(C(N)=O)c1CC2` [Ref. Ex. 8, 1-methyl-8-[4-(trifluoromethoxy)phenoxy]-4,5-dihydro-1H-thieno[3,4-g]indazole-6-carboxamide], in experiment [1], the activity at 0.01 µM was 190%. Also, in experiment [2] (mixed feed dose 0.0003 %), the “plasma glucose (%)” value is on record as 78.2 ± 22.2%, the “plasma neutral lipid (%)” value worked out at 72.2 ± 22.1% and the “plasma total cholesterol (%)” value worked out at 85.7 ± 11.5%. The activity at 1 µM in experiment [3] turned out to be 274%.

`Cn1ncc2c1-c1c(Oc3ccc4c(c3)OCO4)sc(C(N)=O)c1CC2` [Ref. Ex. 9, 8-(1,3-benzodioxol-5-yloxy)-1-methyl-4,5-dihydro-1H-thieno[3,4-g]indazole-6-carboxamide]: the activity at 0.01 µM in experiment [1] is 171%. Further, in experiment [2] (mixed feed dose 0.001 %), the “plasma glucose (%)” value turned out to be 42.9 ± 3.7%, the “plasma insulin (%)” value is on record as 13.7 ± 21.1%, the “plasma neutral lipid (%)” value amounted to 51.0 ± 11.9% and the “plasma total cholesterol (%)” value stood at 74.5 ± 14.4%. Besides, the activity at 1 µM in experiment [3] is 196%.

Consider `Cn1ncc2c1-c1c(Oc3ccc(F)cc3)sc(C(N)=O)c1CC2` [Ref. Ex. 2, 8-(4-fluorophenoxy)-1-methyl-4,5-dihydro-1H-thieno[3,4-g]indazole-6-carboxamide], for which the activity at 0.01 µM in experiment [1] was determined as 175%. In experiment [2] (mixed feed dose 0.0003 %), the “plasma glucose (%)” value stood at 49.0 ± 7.1%, the “plasma neutral lipid (%)” value is reported as 40.4 ± 6.6% and the “plasma total cholesterol (%)” value came out at 62.4 ± 7.1%. The activity at 1 µM in experiment [3] came out at 159%.

In the case of `Cn1ncc2c1-c1c(Oc3cccnc3N)sc(C(N)=O)c1CC2` [Ref. Ex. 32, 8-[(2-aminopyridin-3-yl)oxy]-1-methyl-4,5-dihydro-1H-thieno[3,4-g]indazole-6-carboxamide], the activity at 1 µM in experiment [1] was found to be 101%; in experiment [3] it was 295%.

As to `Cn1ncc2c1-c1c(Oc3ccc(CC(=O)O)cc3)sc(C(N)=O)c1CC2` [Ref. Ex. 24, {4-[(6-carbamoyl-1-methyl-4,5-dihydro-1H-thieno[3,4-g]indazol-8-yl)oxy]phenyl}acetic acid], the activity at 1 µM amounted to 142% in experiment [1] and 126% in experiment [3].

Regarding `NC(=O)c1sc(Oc2ccccc2)c2c1CCc1cn[nH]c1-2` [Ref. Ex. 20, 8-phenoxy-4,5-dihydro-1H-thieno[3,4-g]indazole-6-carboxamide], the activity at 1 µM in experiment [1] worked out at 121%; in experiment [3], 167%.

For `CCCOc1sc(C(N)=O)c2c1-c1c(cnn1C)CC2` [Ref. Ex. 3, 1-methyl-8-propoxy-4,5-dihydro-1H-thieno[3,4-g]indazole-6-carboxamide], the activity at 1 µM in experiment [1] amounted to 179%; in experiment [3] it was 170%.

Regarding `Cn1ncc2c1-c1c(Oc3ccc(S(C)(=O)=O)cc3)sc(C(N)=O)c1CC2` [Ref. Ex. 19, 1-methyl-8-[4-(methylsulfonyl)phenoxy]-4,5-dihydro-1H-thieno[3,4-g]indazole-6-carboxamide], the activity at 1 µM stood at 183% in experiment [1] and 209% in experiment [3].

For `CNC(=O)c1sc(Oc2ccccc2)c2c1CCc1cnn(C)c1-2` [Ref. Ex. 6, N,1-dimethyl-8-phenoxy-4,5-dihydro-1H-thieno[3,4-g]indazole-6-carboxamide], the activity at 1 µM was 164% in experiment [1] and 187% in experiment [3].

With `Cn1ncc2c1-c1c(Oc3cnc4ccccc4c3)sc(C(N)=O)c1CC2` [Ref. Ex. 30, 1-methyl-8-(quinolin-3-yloxy)-4,5-dihydro-1H-thieno[3,4-g]indazole-6-carboxamide], in experiment [1], the activity at 0.01 µM amounted to 166%. Also, the activity at 1 µM in experiment [3] is 260%.

Turning to `Cn1ncc2c1-c1c(Oc3ccc4c(c3)OCO4)sc(C(=O)NCc3ccncc3)c1CC2` [Ref. Ex. 28, 8-(1,3-benzodioxol-5-yloxy)-1-methyl-N-(pyridin-4-ylmethyl)-4,5-dihydro-1H-thieno[3,4-g]indazole-6-carboxamide], the activity at 1 µM in experiment [1] came to 186%; in experiment [3] it was 170%.

For `COc1ncccc1Oc1sc(C(N)=O)c2c1-c1c(cnn1C)CC2` [Ref. Ex. 34, 8-[(2-methoxypyridin-3-yl)oxy]-1-methyl-4,5-dihydro-1H-thieno[3,4-g]indazole-6-carboxamide], the results for the activity at 1 µM in experiment [1] and in experiment [3] were 164% and 249%, respectively.
